The target of one experiment is T1, α1L adrenoceptor (Oryctolagus cuniculus, UniProt O02824).
T1 sequence (O02824 1-466): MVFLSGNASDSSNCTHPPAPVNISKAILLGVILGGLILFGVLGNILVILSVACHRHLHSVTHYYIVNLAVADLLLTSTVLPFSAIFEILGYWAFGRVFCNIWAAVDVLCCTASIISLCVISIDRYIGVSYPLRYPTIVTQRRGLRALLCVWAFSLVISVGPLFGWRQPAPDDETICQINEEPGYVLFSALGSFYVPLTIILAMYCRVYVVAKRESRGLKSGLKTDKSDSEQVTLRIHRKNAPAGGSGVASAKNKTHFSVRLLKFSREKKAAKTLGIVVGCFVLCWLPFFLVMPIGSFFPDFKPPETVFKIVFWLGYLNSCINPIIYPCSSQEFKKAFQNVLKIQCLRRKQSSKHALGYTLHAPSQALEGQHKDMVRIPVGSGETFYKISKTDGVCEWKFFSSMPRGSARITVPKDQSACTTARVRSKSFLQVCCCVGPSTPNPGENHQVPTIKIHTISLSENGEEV
The experiment can be described thus: Functional antagonism of noradrenaline-induced contractions of rabbit aorta pretreated with chloroethylclonidine. As to conditions: NA-induced contractions of rabbit aorta pretreated with chloroethylclonidine. In kind it is biochemical. The protocol:
Adult male New Zealand rabbits were sacrificed by cervical dislocation. The aorta was removed, placed in Krebs-Henseleit buffer and dissected free of adhering tissue. […] Desmethylimipramine (0.1 μm) and corticosterone (1 μM) to block neuronal and extraneuronal uptake of NA, (±)-propranol (1 μM) to block β adrenoceptors and yohimbine (0.1 μM) to block α2 adrenoceptors, were added to the buffer.
The preparations were allowed to equilibrate for 60 minutes and then primed every thirty minutes with 10 μM NA for three times. The aortic rings were then incubated with the alkylating agent chloroethylclonidine (5×10^−5 M) for 30 minutes and then washed extensively three times (in 0.5 hours) before constructing the NA-concentration/response curve. After washout of NA and re-equilibration of the tissue (45 minutes), the drug to be tested was added and, after 30 minutes, a second NA-cumulative-concentration/response curve constructed.
Each antagonist concentration was tested using 2-3 aortic rings from different rabbits.
Dose ratios (i.e., the ratio between the concentrations of NA required to produce half-maximal response in the presence and in the absence of the test antagonist) were calculated for each concentration of the compounds. The logarithm of these dose ratio-1 was plotted against the logarithm of the compound concentrations (Schild plot) to evaluate the affinity constant Kb.
When only one or two concentrations of the test compounds were utilised, the apparent Kb value was calculated using the formula: Kb=[B]/(DOSE RATIO-1), where B is the antagonist concentration.

In experiment [1] the target is T2, α1d-adrenoceptor (recombinant) (Homo sapiens, UniProt P25100).
T2 sequence (P25100 1-572): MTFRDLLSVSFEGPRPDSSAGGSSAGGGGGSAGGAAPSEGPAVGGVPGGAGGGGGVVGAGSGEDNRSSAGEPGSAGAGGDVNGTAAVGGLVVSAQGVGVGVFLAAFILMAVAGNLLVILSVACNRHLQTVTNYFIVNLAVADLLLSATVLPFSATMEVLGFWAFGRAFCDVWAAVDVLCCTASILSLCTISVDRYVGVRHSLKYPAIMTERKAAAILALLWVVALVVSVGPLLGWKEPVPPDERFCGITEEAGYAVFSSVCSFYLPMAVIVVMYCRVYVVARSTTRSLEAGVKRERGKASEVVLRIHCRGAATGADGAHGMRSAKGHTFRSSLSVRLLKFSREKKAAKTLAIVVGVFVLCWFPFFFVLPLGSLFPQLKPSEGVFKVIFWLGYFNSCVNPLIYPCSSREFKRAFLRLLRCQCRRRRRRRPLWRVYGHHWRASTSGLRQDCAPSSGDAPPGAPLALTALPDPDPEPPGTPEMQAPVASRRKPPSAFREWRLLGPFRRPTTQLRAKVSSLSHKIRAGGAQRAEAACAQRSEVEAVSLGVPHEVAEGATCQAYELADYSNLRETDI
The experiment can be described thus: Radioligand binding, cloned α1d-adrenoceptor ([3H]prazosin). As to conditions: read-out: Affinity for recombinant α1d-adrenoceptor, cloned receptors (Ki). The protocol: (§1) Determination of affinity for cloned subtypes of α1-adrenoceptor subtypes was performed in membranes from cells transfected by electroporation with DNA expressing the genes encoding each α1-adrenoceptor subtype.
(§2) Non-specific binding was determined in the presence of 10 μM phentolamine.
(§3) Incubation was stopped by addition of ice-cold Tris buffer and rapid filtration through 0.2% polyethyleneimine-pretreated Schleicher & Schuell GF52 filters.
(§4) Data were expressed as mean Ki.

Experiment [2] addresses T3, α1b-adrenoceptor (recombinant) (Homo sapiens, UniProt P35368).
T3 construct: expressed in transfected cells
T3 sequence (P35368 1-520): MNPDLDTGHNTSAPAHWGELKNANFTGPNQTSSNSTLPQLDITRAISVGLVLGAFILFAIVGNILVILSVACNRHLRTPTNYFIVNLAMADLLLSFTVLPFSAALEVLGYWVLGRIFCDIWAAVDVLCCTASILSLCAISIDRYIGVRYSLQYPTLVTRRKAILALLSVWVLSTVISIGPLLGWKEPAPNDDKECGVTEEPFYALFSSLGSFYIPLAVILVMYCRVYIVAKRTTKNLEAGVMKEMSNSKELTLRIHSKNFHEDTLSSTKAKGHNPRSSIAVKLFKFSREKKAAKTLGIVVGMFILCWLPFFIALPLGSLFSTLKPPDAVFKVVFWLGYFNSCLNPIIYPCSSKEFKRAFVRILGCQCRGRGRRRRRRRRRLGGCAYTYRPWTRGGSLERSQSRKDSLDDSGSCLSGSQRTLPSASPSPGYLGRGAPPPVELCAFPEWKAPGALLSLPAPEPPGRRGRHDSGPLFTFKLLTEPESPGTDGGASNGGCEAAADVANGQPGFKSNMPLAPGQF
The experiment can be described thus: Radioligand binding, cloned α1b-adrenoceptor ([3H]prazosin). The conditions noted are these: read-out: Affinity for recombinant α1b-adrenoceptor, cloned receptors (Ki). The protocol: as §1, §2, §3, §4

Experiment [3] has as its target T4, α1a-adrenoceptor (recombinant) (Homo sapiens, UniProt P35348).
T4 construct: expressed in transfected cells
T4 sequence (P35348 1-466): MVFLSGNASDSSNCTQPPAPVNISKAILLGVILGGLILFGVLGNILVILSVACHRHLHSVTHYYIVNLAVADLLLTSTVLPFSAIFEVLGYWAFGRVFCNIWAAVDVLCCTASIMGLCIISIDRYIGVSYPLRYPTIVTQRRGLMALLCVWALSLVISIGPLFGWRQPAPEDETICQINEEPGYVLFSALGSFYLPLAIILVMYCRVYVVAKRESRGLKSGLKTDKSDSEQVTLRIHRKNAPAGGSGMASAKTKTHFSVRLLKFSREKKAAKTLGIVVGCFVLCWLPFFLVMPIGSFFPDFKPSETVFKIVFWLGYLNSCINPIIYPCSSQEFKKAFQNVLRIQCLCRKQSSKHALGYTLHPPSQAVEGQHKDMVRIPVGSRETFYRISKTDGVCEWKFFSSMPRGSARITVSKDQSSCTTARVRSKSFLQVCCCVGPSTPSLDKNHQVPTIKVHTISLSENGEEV
The experiment can be described thus: Radioligand binding, cloned α1a-adrenoceptor ([3H]prazosin). As to conditions: read-out: Affinity for recombinant α1a-adrenoceptor, cloned receptors (Ki). The protocol:
as §1, §2, §3, §4

Experiment [4] has as its target T5, 5HT1A-serotoninergic receptor (Homo sapiens, UniProt P08908).
T5 sequence (P08908 1-422): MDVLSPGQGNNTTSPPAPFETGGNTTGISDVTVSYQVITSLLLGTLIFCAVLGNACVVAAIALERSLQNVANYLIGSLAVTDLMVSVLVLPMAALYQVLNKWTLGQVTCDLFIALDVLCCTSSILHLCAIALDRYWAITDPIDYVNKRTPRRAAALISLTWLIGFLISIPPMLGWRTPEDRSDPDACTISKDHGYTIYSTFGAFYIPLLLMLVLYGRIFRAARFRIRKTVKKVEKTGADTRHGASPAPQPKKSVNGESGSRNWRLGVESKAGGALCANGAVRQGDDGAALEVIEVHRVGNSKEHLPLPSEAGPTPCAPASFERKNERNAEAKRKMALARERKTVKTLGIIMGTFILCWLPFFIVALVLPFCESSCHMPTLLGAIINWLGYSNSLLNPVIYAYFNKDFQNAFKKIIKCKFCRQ
The experiment can be described thus: Radioligand binding, cloned 5-HT1A-serotoninergic receptor in HeLa membranes ([3H]8-OH-DPAT). The conditions noted are these: cloned human 5-HT1A receptor in HeLa membranes, mean Ki, read-out: Affinity for 5-HT1A receptor, cloned receptors (Ki). Further details: expressed in transfected cells; host or cells: HeLa. The protocol:
HeLa cells were grown as monolayers in Dulbecco's Modified Eagle medium (DMEM) supplemented with 10% foetal calf serum and gentamicin (100 μg/mL), 5% CO2, at 37° C. The cells were detached from the growth flask at 95% confluence by a cell scraper and were lysed in ice-cold Tris-5-mM and EDTA-5-mM buffer (pH 7.4). The homogenates were centrifuged at 40000×g×20 minutes and the membranes were resuspended in a small volume of ice-cold buffer containing Tris 5 mM and EDTA 5 mM (pH 7.4), and immediately frozen and stored at −70° C. until use.
Non-specific binding was determined in the presence of 10 μM 5-HT. The incubation was stopped by addition of ice-cold Tris buffer and rapid filtration through 0.2% polyethyleneimine-pretreated Schleicher & Schuell filters.
as §4

Experimental findings from patent US6403594B1, “Benzopyran derivatives” (Recordati, S.A. Chemical and Pharmaceutical Company, priority 1999, dated 2002) are described below.

A word on the Ki: it is a dissociation constant, usually derived from enzyme kinetics or from competition with a known ligand. Turning to `COc1ccc(Cl)cc1N1CCN(CCCNC(=O)c2cccc3c(=O)c(C)c(NC(=O)OC(C)(C)C)oc23)CC1.O` [Example 3, 2-(1,1-Dimethylethoxycarbonylamino)-8-{3-[4-(5-chloro-2-methoxyphenyl)-1-piperazinyl]propylcarbamoyl}-3-methyl-4-oxo-4H-1-benzopyran monohydrate], the “Functional affinity for the α1L adrenoceptor subtype, pKb” value (from here on “Functional affinity”) on α1L adrenoceptor was 8.43. Moreover, the Ki in experiment [1] was 0.45 nM; in experiment [2], 0.32 nM; in experiment [3], 0.2 nM; in experiment [4] it was 81.9 nM.

On to `COc1ccc(Cl)cc1N1CCN(CCCNC(=O)c2cccc3c(=O)c(C)c(C(=O)N(C)C)oc23)CC1` [Example 6, 8-{3-[4-(5-Chloro-2-methoxyphenyl)-1-piperazinyl]propylcarbamoyl}-3-methyl-2-dimethylcarbamoyl-4-oxo-4H-1-benzopyran], for which, on α1L adrenoceptor, the “Functional affinity” value turned out to be 8.55. Also, the Ki in experiment [1] came to 3.83 nM; in experiment [2], 3.56 nM; in experiment [3], 0.23 nM; in experiment [4] it was 68.4 nM.

Regarding `Cc1c(C(N)=O)oc2c(C(=O)NCCCN3CCN(c4cc(F)ccc4OCC(F)(F)F)CC3)cccc2c1=O` [Example 8, 2-Carbamoyl-8-<3-{4-[5-fluoro-2-(2,2,2-trifluoroethoxy)phenyl]-1-piperazinyl}-propylcarbamoyl>-3-methyl-4-oxo-4H-1-benzopyran], the “Functional affinity” value on α1L adrenoceptor was 9. For the same molecule, the Ki in experiment [1] stood at 3.02 nM; in experiment [2], 9.91 nM; in experiment [3], 0.144 nM; in experiment [4] it was 39.5 nM.

With `COc1ccc(Cl)cc1N1CCN(CCCNC(=O)c2cccc3c(=O)c(C)c(C#N)oc23)CC1` [Example 11, 8-{3-[4-(5-Chloro-2-methoxyphenyl)-1-piperazinyl]propylcarbamoyl}-2-cyano-3-methyl-4-oxo-4H-1-benzopyran], the “Functional affinity” value at α1L adrenoceptor was found to be 8.45. The Ki in experiment [1] is 2.72 nM; in experiment [2], 0.78 nM; in experiment [3], 0.38 nM; in experiment [4] it was 24.4 nM.

For the molecule `COc1ccc(C(F)(F)F)cc1N1CCN(CCCNC(=O)c2cccc3c(=O)c(C)c(-c4ccccc4)oc23)CC1` [Example 17, 8-{3-[4-(2-Methoxy-5-trifluoromethylphenyl)-1-piperazinyl]propylcarbamoyl}-3-methyl-4-oxo-2-phenyl-4H-1-benzopyran], the “Functional affinity” value on α1L adrenoceptor is 8.03. The Ki came to 13.1 nM in experiment [1], 9.42 nM in experiment [2] and 1.6 nM in experiment [3].

Turning to `Cc1c(-c2ccccc2)oc2c(C(=O)NCCCN3CCN(c4ccc(F)cc4OCC(F)(F)F)CC3)cccc2c1=O` [Example 19, 8-<3-{4-[4-Fluoro-2-(2,2,2-trifluoroethoxy)phenyl]-1-piperazinyl}propylcarbamoyl>-3-methyl-4-oxo-2-phenyl-4H-1-benzopyran], the “Functional affinity” value at α1L adrenoceptor is on record as 8.72. The inhibitory constant (Ki) in experiment [1] came to 4.79 nM; in experiment [2] it was 2.61 nM; in experiment [3] it was 0.136 nM; in experiment [4] it was 22.4 nM.

Turning to `COc1cc2nc(N3CCN(C(=O)C4CCCO4)CC3)nc(N)c2cc1OC` (stereo not shown) [terazosin, reference compound], the “Functional affinity” value at α1L adrenoceptor came out at 7.25. The inhibition constant Ki in experiment [1] was found to be 2.4 nM.
